Reference: ChEMBL document CHEMBL3425465, “Synthesis, antimalarial and antitubercular activities of meridianin derivatives” (Eur J Med Chem, 2015)
Converted amounts (≈) assume the structure as drawn.

How the values were obtained:
Format in all cases: functional
[1] = system: Mycobacterium tuberculosis; experiment: Antitubercular activity against Rifampicin-resistant Mycobacterium tuberculosis assessed as parasite growth inhibition by REMA method
[2] = system: Mycobacterium tuberculosis; experiment: Antitubercular activity against Isoniazid-resistant Mycobacterium tuberculosis assessed as parasite growth inhibition by REMA method
[3] = system: Mycobacterium tuberculosis; experiment: Antitubercular activity against multidrug-resistant Mycobacterium tuberculosis assessed as parasite growth inhibition by REMA method
[4] = system: Mycobacterium tuberculosis; experiment: Ratio of isoniazid IC50 to compound IC50 for Isoniazid-resistant Mycobacterium tuberculosis by REMA method

SMILES | MIC90 [1] [µM] | MIC90 [2] [µM] | MIC90 [3] [µM] | Ratio [4]
O=C1NC(c2c[nH]c3ccc(Br)cc23)Nc2ccccc21 (stereo not drawn) | 46.9 (≈ 16 µg/mL) | 46.9 (≈ 16 µg/mL) | 188 (≈ 64.2 µg/mL) | 
O=C1NC(c2c[nH]c3ccc(I)cc23)Nc2ccccc21 (stereo not drawn) | 5.2 (≈ 2.02 µg/mL) | 10.3 (≈ 4.01 µg/mL) | 20.7 (≈ 8.06 µg/mL) | >12
CC[C@@H](CO)NCCN[C@@H](CC)CO [ETHAMBUTOL] |  |  | 626 (≈ 128 µg/mL) | 
NNC(=O)c1ccncc1 [ISONIAZID] |  | 467 (≈ 64.1 µg/mL) | 117 (≈ 16 µg/mL) | 
CO[C@H]1/C=C/O[C@@]2(C)Oc3c(C)c(O)c4c(O)c(c(/C=N/N5CCN(C)CC5)c(O)c4c3C2=O)NC(=O)/C(C)=C\C=C\[C@H](C)[C@H](O)[C@@H](C)[C@@H](O)[C@@H](C)[C@H](OC(C)=O)[C@@H]1C [RIFAMPIN] | 311 (≈ 256 µg/mL) | 0.07 (≈ 0.0576 µg/mL) | 38.9 (≈ 32 µg/mL) | 
